One molecule from patent US20250161309A1, “TOPICAL COMPOSITIONS AND USES THEROF” (TOPADUR PHARMA AG, priority 2022, published 2025) can be followed below.

This data set concerns C57BL/6 mouse model for chemotherapy-induced alopecia (CIA). The data set is described as follows: Preventive C57BL/6 mouse model of cyclophosphamide (chemotherapy)-induced alopecia (CIA), topical administration. The class given is in vivo. To be noted: female mice; for mice with visual melanogenesis in peeled skin: end of study; for Ki-67 mean score (positive cells near the root sheath of hair follicles, semi-quantitative grading): vehicle 0.4; for CD-31 mean score (perifollicular angiogenesis, semi-quantitative grading): vehicle group 0.8. Here is the method:
Female C57BL/6 mice (Vivo Bio Tech Ltd, Telangana, India) of 6 to 9 weeks of age in stable telogen phase of hair growth cycle were used.
100 μL of a clear solution of respective 0.0004%, 0.002% (w/v) concentrations of Cpd 1 in the corresponding vehicle (PEG-400:EtOH/7:3) (PEG-400: Central Drug House Ltd. Dehli, India; Ethanol: Changshu Hongsheng fine chemicals Co. Ltd. China) and the positive control, 2% solution (w/v) Minoxidil (Chemieliva, China) in the corresponding vehicle (PEG-400:EtOH/7:3) were topically applied to the depilated area on the dorsal back of female mice. The solutions covered a circular area of approximately 4 cm^2. The treatment regimen was twice daily for 7 days before Cyclophosphamide injection and afterwards for 3 weeks.
Animals (female) on day 1 weighted on average 18.8 g+0.2 ranging from 18.5 to 19.3 g. The animals were exposed by gentle clipping of hair from the dorsal back using an electric clipper. The following day, animals with clear skin were depilated using a depilatory cream. To evaluate the preventive potential of Cpd 1 in the chemotherapy-induced alopecia mouse model, animals were treated topically with 0.0004% and 0.002% Cpd 1, 2% Minoxidil and vehicle from day 1 onwards on the dorsal depilated skin with twice daily application regimen until day 10, when all the animals have attained the anagen stage. On day 11 after depilation, no application of the Cpd 1 or vehicle was done. This was considered a wash-out period. On day 12 after depilation, the animals were given intraperitoneal injection of cyclophosphamide (CYP-HiMedia Laboratories, Mumbai, India) at the dose of 150 mg/kg body weight. One day of wash-out period was given to the animals before restarting the treatment with Cpd 1. The treatment regimen was reinitiated with 0.0004% and 0.002% Cpd 1, 2% Minoxidil and vehicle in the respective groups for further 3 weeks. All the animals were observed from day 1 (experiment start) till day 30 (experiment termination and animal sacrifice day) and the hair growth score was recorded on a daily basis. The criteria for scoring of hair growth is as follows: no hair growth, pink skin—score 0; skin colour changes from pink to grey/light grey without visible hair growth—score 0.5; onset of anagen (skin colour changes from grey/light grey to dark grey/black without visible hair growth)—score 1; sparse hair growth—score 1.5; diffuse short hair growth—score 2, moderate hair growth—score 2.5 and dense, normal coat hair—score 3 (Lee B H, Lee J S, Kim Y C. Hair growth-promoting effects of lavender oil in C57BL/6 mice. Toxicol Res. (2016) 32(2):103-108). Photographs of the animals were captured before the initiation and during the course of the study. […]
After completion of the experiments all animals were sacrificed by euthanasia (Choi H I, Kang B M, Jang J, Hwang S T, Kwon O. Novel effect of sildenafil on hair growth. Biochem Biophys Res Commun. (2018) 505(3):685-691). The dorsal skin of each animal was then removed by peeling. The peeled skin was spread and checked visually for the induction of melanogenesis indicated by visual blackening on the reverse side of the skin. The skin samples were evenly spread on a pre-labelled glass slide and kept in 10% formalin until further use. Later, the skin samples were embedded in paraffin and sectioned at 5 microns using a microtome and the corresponding slides per animal were prepared. The slides obtained were used for Haematoxylin & Eosin (H&E) staining and in the transverse and longitudinal sections' photomicrographs data, the total number of follicles in the dermis and the sub cutis were determined for each animal. The skin thickness was measured using Image J 1.44 software. […]

Take `CCCOc1ccc(S(=O)(=O)N2CCC(CCO[N+](=O)[O-])(CCO[N+](=O)[O-])CC2)cc1-c1nc2c(CCC)cn(CC)c2c(=O)[nH]1` [Cpd 1, (1-((3-(5-ethyl-4-oxo-7-propyl-4,5-dihydro-3H-pyrrolo[3,2-d]pyrimidin-2-yl)-4-propoxyphenyl)sulfonyl)piperidine-4,4-diyl)bis(ethane-2,1-diyl) dinitrate]: the “number of hair follicles, Cpd 1 compared with 2% Minoxidil-treated groups” value was “No significant differences”. For the same molecule, where the note is “0.0004% (w/v)”, the “signs of alopecia after CYP administration on day 12” value is on record as “minor signs of alopecia”; the “mice with visual melanogenesis in peeled skin” value was 6/7; the “Ki-67 mean score (positive cells near the root sheath of hair follicles, semi-quantitative grading)” value came to 1.4; the “CD-31 mean score (perifollicular angiogenesis, semi-quantitative grading)” value was found to be 1.4. In addition, under “0.0004% and 0.002%”, the “depth and development of dermal papilla and long hair shaft of hair follicles observed (longitudinal skin sections)” value was “majority of the animals”; the “thickness of the skin compared to vehicle group” value is reported as “slightly increase”. Moreover, under “0.0004% and 0.002%, before CYP administration, majority of animals, end of first week of application”, the “skin color change (transition from telogen to anagen phase) compared to Minoxidil-treated group” value is “faster”. Where the note is “0.002% (w/v)”, the “increase in hair growth, 0.002% compared to 0.0004%” value is given as “slightly faster increase”; the “signs of alopecia after CYP administration on day 12” value is listed as “no signs of alopecia”; the “mice with visual melanogenesis in peeled skin” value is reported as 7/7; the “Ki-67 mean score (positive cells near the root sheath of hair follicles, semi-quantitative grading)” value was determined as 1.7. For the same molecule, the “CD-31 mean score (perifollicular angiogenesis, semi-quantitative grading)” value (0.002% (w/v)) is 1.6. Under “30-day study, any of the groups”, the “adverse effects on body weight” value is “no adverse effects”. Besides, the “behavioral changes, reaction to treatment or adverse effects in relation to general health” value (30-day study, topical twice daily) is on record as “no signs of behavioral changes, reaction to treatment or adverse effects”. For the same molecule, where the note is “Compound 1 treated groups”, the “decrease in the mean hair growth after CYP administration” value is “no decrease”; the “number of hair follicles in the subcutis layer of the skin and total follicle counts compared to vehicle group (H&E)” value is listed as “significantly increased”. For the same molecule, the “animals with complete hair regrowth (hair growth score of 3)” value (Cpd 1 groups (0.0004% and 0.002%)) is listed as 7/7. In addition, the “increase in hair growth compared to Minoxidil and vehicle group” value (from day 6/7 onwards) was “faster increase”.
